This is an account of results in patent publication US12448352B2, “Beta adrenergic agonist and methods of using the same” (Curasen Therapeutics, Inc., priority 2019, dated 2025).

Data set [1] can be described thus: Mouse pharmacokinetic study (plasma). It is filed as in vivo, male C57BL/6J mice. To be noted: PO 5 mg/kg. How it is done: (§1) The rat pharmacokinetics studies of exemplary compounds 03-3, 03-5, and 03-115 were conducted with male SD rats. These rats were typically about 6-8 weeks old, weighing 200 g to 300 g. Animals were fasted overnight and free access to food 4 hours after dosing. A required volume of vehicle was added to reach the target concentration of the test article and vehicle component to prepare for the dosing. The dosing vehicle was PEG400 or 30% PEG400 in saline for IV, or 0.5% methylcellulose in water for PO. For IV dosing, the animals were administered intravenously via tail vein. For PO dosing, the animals were administered via oral gavage. After dosing, blood sample was collected (˜0.2 mL per time point) through jugular vein or heart puncture. Blood of each sample was transferred into plastic micro centrifuge tubes containing EDTA-K2. Collection tubes with blood samples and anticoagulant were inverted several times for proper mixing of the tube contents and then placed on wet ice. The blood samples were centrifuged at 2000 g for 5 minutes at 4° C. to obtain plasma which was stored in a freezer at −75±15° C. prior to analysis. Samples were analyzed using LC-MS/MS. WinNonlin were used for pharmacokinetic calculations.
Mouse pharmacokinetics studies of exemplar compounds 03-3 and 03-5 were conducted substantially similarly to the rat pharmacokinetic studies, instead using male C57BL/6J mice. These mice were typically about 6-8 weeks old, weighing 20 g to 30 g. Animals were free access to food before dosing. Sample amount was ˜0.03 mL per time point and sample site was dorsal metatarsal or heart puncture.

The nature of data set [2]: Monkey pharmacokinetic study. It is filed as in vivo, male Non-Naïve Cynomolgus Monkeys. The settings on record: PO 0.3 mg/kg. As to the method: as §1
Monkey pharmacokinetics studies of exemplary compounds 03-3, 03-5, and 03-115 were conducted substantially similarly to the rat pharmacokinetic studies, instead using male Non-Naïve Cynomolgus Monkeys. Animals for PO studies were food fasted overnight prior to dosing and were fed approximately 2 hours after dosing. Animals for IV studies had free access to food and water. Blood samples were collected through venipuncture of peripheral veins except the dosing vein.

The nature of data set [3]: Plasma protein binding, equilibrium dialysis (human). It is filed as in vitro ADME. As to the method:
Preparation of 100 mM sodium phosphate and 150 mM NaCl buffer (PBS). A basic solution was prepared by dissolving 14.2 g/L Na2HPO4 and 8.77 g/L NaCl in deionized water and the solution could be stored at 4° C. for up to 7 days. An acidic solution was prepared by dissolving 12.0 g/L NaH2PO4 and 8.77 g/L NaCl in deionized water and the solution could be stored at 4° C. for up to 7 days. The basic solution was titrated with the acidic solution to pH 7.4 and store at 4° C. for up to 7 days. pH was checked on the day of experiment and was adjusted if outside specification of 7.4±0.1.
Thawing of the frozen plasma (stored at −80° C.). Frozen plasma was thawed immediately at room temperature. The plasma was centrifuged at 3,220 g for 10 minutes to remove clots and supernatant was collected into a fresh tube. The pH of the plasma was checked and recorded. Note: a). Only use plasma that has been thawed no more than twice since arrival. b). Only use plasma within the range of pH 7 to pH 8.
Preparation of working solutions. The working solutions of test compound and control compound ketoconazole were prepared in DMSO at the concentration of 200 μM. And then 3 μL of working solutions was removed to mix with 597 μL of rat plasma to achieve a final concentration of 1 μM (0.5% DMSO). Plasma samples were vortexed thoroughly.
Preparation of dialysis membranes. […]
Background: In equilibrium dialysis only unbound substance equilibrates across the membrane.

A word on the Cmax: it is the highest concentration seen after dosing. What is called Tmax is the time at which the peak concentration occurs. Turning to `Cc1ncccc1[C@@H](O)CNC(C)(C)C` [Compound 03-115], in data set [1], the AUCInf stood at 3018 ng·h/mL, the Cmax amounted to 1751 ng/mL, the MRTInf_obs turned out to be 1.8 h and the Tmax stood at 0.5 h. In data set [2], the AUCInf came to 261 ng·h/mL, the Cmax is recorded as 67 ng/mL, the MRTInf_obs is on record as 3.46 h and the Tmax is recorded as 1.17 h. Also, the “PPB (human), Percent of Unbound Fractions” value in data set [3] is recorded as 100%.
